molecular target: T1, N-type calcium channel (NTCC) (Homo sapiens, UniProt Q00975); assay: FLIPR calcium mobilization assay for N-type calcium channel; format: cell-based; details: calcium mobilization in vitro assay; differentiated IMR32 cells, 90 mM KCl, 5 μM nitrendipine, Fluo-4
T1 construct: endogenous in cells; host or cells: differentiated IMR32 cells (ATCC)
Description: Cell maintenance and differentiation. Unless noted otherwise, cell culture reagents were purchased from Mediatech of Herndon, Md. IMR32 cells (American Type Culture Collection, ATCC, Manassas, Va.) were routinely cultured in growth medium consisting of minimum essential medium containing 10% fetal bovine serum (FBS, Hyclone, Logan, Utah), 100 U/mL penicillin, 100 μg/mL streptomycin, 2 mM L-glutamine, 1 mM sodium pyruvate, and 1×MEM non-essential amino acids. 80-90% confluent flasks of cells were differentiated using the following differentiation medium: Growth medium plus 1 mM dibutyryl cyclic AMP (Sigma, St. Louis, Mo.), and 2.5 μM bromodeoxyuridine (Sigma). Cells were differentiated for 8 days by replacing differentiation medium every 2-3 days. A7r5 (ATCC) cells were maintained and routinely cultured in A7r5 growth medium consisting of Dulbecco's Modified Eagles Medium containing 10% FBS, 100 U/mL penicillin, 100 μg/mL streptomycin, 4 mM L-glutamine, and 0.15% sodium bicarbonate. 80-90% confluent flasks of cells were differentiated using the following differentiation medium: A7r5 Growth Medium plus 1 mM dibutyryl cyclic AMP (Sigma). Cells were differentiated for 8 days by replacing differentiation medium every 2-3 days.
Recombinant human embryonal kidney cells (HEK293, ATCC) stably transfected with either N-type calcium channel (NTCC) subunits (α1b, α2δ, and β3) or L-type calcium channel (LTCC) subunits (α1c, α2δ, and β1) were routinely cultured in growth medium consisting of Dulbecco's Modified Eagles Medium containing 10% FBS, 100 U/mL penicillin, 100 μg/mL streptomycin, 4 mM L-glutamine, 500 μg/mL geneticin (G418), 20 μg/mL Blasticidin S (InVivogen, San Diego, Calif.) and 500 μg/mL zeocin (InVivogen). FLIPR Calcium Mobilization Assay for N-type Calcium Channel. One day prior to performing this assay, differentiated IMR32 cells were treated with lx CellStripper, and seeded on poly-D-lysine-coated 96-well clear-bottom black plates (Becton Dickinson, Franklin Lakes, N.J.) at 200,000 cells/well. On the day of the assay, the cell plates were washed with IMR32 buffer (127 mM NaCl, 1 mM KCl, 2 mM MgCl2, 700 μM NaH2PO4, 5 mM CaCl2, 5 mM NaHCO3, 8 mM HEPES, 10 mM glucose, pH 7.4), then pre-stimulated with KCl and loaded as follows: 0.05 mL of IMR32 buffer, 0.05 mL of each compound tested diluted in IMR32 buffer containing 20 μM nitrendipine (Sigma), and 0.1 mL KCl dissolved in IMR32 buffer, plus Fluo-4 were added (3 μM final concentration, Molecular Probes, Eugene, Oreg.). Final test compound concentrations ranged from about 846 pM to about 17 μM, final nitrendipine concentration was 5 μM, and final KCl concentration was 90 mM. After 1 hour, the cells were washed twice with 0.05 mL of each compound tested in nitrendipine-containing IMR32 buffer (no KCl or Fluo-4), and then replaced with 0.1 mL of each compound tested in nitrendipine-containing IMR32 buffer. Plates were then transferred to a Fluorimetric Imaging Plate Reader (FLIPR^96, Molecular Devices, Inc., Sunnyvale, Calif.) for assay. The FLIPR measured basal Fluo-4 fluorescence for 315 seconds (i.e., 5 minutes and 15 seconds), then added 0.1 mL KCl agonist dissolved in IMR32 buffer and measured fluorescence for another 45 seconds. Final test compound concentrations on the cells after FLIPR read ranged from about 846 pM to about 17 μM, final nitrendipine concentration was 5 μM, and final KCl concentration was 90 mM. Data were collected over the entire time course and analyzed using Excel, Graph Pad Prism (version 3.02, Graph Pad, San Diego, Calif.), or an in-house non-linear regression analysis software.

T1 sequence (Q00975 whole entry): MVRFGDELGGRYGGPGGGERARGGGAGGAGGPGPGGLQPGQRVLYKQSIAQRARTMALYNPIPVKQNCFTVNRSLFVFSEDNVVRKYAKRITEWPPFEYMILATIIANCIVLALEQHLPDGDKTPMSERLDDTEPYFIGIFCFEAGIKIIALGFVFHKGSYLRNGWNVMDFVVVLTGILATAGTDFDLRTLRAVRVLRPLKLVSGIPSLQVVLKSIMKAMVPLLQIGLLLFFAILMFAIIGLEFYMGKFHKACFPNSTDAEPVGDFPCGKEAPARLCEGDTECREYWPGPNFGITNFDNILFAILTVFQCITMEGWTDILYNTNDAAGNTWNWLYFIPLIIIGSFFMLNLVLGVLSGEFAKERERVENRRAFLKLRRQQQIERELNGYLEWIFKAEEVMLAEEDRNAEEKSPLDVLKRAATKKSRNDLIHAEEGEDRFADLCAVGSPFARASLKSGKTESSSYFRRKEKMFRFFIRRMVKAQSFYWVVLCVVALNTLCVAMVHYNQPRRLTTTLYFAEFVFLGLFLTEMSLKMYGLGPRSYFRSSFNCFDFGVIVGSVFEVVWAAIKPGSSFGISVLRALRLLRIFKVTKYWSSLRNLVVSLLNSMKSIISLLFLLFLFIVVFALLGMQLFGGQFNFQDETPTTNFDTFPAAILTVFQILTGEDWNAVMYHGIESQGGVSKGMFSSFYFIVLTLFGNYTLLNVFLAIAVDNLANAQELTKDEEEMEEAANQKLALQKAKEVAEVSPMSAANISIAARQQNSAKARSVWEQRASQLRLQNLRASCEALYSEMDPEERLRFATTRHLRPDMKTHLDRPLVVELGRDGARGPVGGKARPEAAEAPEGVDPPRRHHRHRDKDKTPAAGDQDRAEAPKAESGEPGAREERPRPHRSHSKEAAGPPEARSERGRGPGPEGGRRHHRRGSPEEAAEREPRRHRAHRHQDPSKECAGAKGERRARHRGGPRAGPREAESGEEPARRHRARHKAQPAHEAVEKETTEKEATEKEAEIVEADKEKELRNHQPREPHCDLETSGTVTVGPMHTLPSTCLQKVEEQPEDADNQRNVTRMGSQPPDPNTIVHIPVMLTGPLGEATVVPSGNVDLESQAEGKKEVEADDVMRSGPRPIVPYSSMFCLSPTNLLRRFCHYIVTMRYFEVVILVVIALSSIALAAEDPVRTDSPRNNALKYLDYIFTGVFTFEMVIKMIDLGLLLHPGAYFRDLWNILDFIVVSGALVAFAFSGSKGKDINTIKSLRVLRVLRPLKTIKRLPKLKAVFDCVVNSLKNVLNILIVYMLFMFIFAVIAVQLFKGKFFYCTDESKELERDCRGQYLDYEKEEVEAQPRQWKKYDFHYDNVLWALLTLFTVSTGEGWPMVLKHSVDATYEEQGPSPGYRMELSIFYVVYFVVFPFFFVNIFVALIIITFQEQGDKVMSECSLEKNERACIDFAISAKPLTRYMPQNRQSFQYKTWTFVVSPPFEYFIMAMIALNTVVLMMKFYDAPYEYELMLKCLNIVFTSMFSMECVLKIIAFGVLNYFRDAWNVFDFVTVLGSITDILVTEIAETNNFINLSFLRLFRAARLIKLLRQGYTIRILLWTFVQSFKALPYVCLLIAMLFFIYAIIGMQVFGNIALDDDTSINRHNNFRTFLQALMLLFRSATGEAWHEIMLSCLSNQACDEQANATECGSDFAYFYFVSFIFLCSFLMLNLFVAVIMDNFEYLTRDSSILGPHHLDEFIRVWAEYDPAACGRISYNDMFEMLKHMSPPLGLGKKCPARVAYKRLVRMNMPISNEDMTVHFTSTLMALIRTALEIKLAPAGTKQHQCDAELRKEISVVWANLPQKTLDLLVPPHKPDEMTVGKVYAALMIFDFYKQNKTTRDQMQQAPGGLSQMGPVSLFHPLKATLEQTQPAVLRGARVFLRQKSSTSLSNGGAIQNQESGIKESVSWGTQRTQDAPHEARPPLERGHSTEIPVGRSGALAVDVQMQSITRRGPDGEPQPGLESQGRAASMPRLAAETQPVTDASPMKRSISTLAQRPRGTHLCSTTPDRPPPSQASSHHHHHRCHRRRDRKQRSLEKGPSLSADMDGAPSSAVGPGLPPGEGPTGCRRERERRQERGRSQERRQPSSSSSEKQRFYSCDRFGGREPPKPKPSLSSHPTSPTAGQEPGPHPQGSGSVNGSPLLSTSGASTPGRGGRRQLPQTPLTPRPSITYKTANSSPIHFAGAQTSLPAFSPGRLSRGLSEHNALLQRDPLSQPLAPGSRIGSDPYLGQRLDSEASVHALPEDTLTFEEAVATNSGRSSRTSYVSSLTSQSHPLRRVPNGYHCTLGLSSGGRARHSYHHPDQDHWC
T1 sequence (P54289 25-956 partner limits assumed): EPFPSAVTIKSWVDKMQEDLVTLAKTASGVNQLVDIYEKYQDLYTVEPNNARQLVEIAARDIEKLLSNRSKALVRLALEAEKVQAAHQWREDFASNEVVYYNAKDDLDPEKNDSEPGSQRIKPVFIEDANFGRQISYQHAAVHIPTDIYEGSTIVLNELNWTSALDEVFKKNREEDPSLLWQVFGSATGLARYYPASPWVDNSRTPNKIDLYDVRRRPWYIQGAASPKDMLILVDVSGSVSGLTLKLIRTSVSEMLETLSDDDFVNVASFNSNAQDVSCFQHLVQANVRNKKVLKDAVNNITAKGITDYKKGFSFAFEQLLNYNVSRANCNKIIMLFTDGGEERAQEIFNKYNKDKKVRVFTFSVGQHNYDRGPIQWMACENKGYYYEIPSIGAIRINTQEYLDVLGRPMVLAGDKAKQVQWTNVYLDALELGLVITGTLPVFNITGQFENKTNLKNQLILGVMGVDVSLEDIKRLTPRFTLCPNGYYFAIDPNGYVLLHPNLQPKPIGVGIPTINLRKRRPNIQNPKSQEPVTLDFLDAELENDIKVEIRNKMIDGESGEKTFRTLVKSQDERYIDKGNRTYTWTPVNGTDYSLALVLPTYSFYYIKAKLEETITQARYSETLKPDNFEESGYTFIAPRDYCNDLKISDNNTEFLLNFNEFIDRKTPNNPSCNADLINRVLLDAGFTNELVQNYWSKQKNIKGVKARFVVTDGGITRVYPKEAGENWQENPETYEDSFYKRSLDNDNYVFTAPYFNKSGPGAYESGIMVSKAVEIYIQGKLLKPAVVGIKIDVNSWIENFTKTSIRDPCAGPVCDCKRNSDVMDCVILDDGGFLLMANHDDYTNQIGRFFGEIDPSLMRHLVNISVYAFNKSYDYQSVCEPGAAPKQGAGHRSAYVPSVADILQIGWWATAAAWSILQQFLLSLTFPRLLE
T1 sequence (P54289 957-1103 partner limits assumed): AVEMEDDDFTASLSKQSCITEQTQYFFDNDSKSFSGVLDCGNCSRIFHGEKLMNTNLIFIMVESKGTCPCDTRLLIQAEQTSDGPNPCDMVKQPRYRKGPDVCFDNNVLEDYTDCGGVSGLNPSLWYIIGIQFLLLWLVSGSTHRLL
T1 sequence (P54284 whole entry partner): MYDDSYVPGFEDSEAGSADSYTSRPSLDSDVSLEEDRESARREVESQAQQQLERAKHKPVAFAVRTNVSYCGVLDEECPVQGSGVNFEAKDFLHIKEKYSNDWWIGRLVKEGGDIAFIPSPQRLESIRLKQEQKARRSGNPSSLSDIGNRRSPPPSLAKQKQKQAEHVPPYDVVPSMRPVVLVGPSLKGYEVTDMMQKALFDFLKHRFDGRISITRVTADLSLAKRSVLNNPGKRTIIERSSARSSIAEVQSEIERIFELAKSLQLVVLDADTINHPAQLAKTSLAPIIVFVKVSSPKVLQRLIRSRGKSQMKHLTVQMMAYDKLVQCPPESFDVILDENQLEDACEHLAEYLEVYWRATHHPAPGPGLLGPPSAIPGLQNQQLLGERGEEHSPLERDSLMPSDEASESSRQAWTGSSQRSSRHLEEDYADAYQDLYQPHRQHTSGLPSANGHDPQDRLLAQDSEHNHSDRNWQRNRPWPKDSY

| Structure (SMILES) | IC50 [µM] |
| --- | --- |
| O=C(NCCOc1ccc(F)cc1)NOC1CCN(S(=O)(=O)c2cccc(C(F)(F)F)c2)CC1 [Example 31, 1-(2-(4-Fluorophenoxy)ethyl)-3-(1-(3-(trifluoromethyl)phenylsulfonyl)piperidin-4-yloxy)urea] | 0.154 |
| CN(C(=O)NOC1CCN(S(=O)(=O)c2cccc(C(F)(F)F)c2)CC1)c1ccc(F)cc1 [Example 32, 1-(4-Fluorophenyl)-1-methyl-3-(1-(3-(trifluoromethyl)phenylsulfonyl)piperidin-4-yloxy)urea] | 0.56 |
| O=C(NOC1CCN(S(=O)(=O)c2ccc(OC(F)(F)F)cc2)CC1)NC1CCC1 [Example 55, 1-Cyclobutyl-3-(1-(4-(trifluoromethoxy)phenylsulfonyl)piperidin-4-yloxy)urea] | 0.29 |
| N#Cc1cccc(C(=O)NOC2CCN(S(=O)(=O)c3cccc(C(F)(F)F)c3)CC2)c1 [Example 7, 3-Cyano-N-(1-(3-(trifluoromethyl)phenylsulfonyl)piperidin-4-yloxy)benzamide] | 0.575 |
| O=C(NO[C@H]1CCN(S(=O)(=O)c2cccc(C(F)(F)F)c2)C1)c1ccc(F)cc1 [Example 16, (S)-4-Fluoro-N-(1-(3-(trifluoromethyl)phenylsulfonyl)pyrrolidin-3-yloxy)benzamide] | 1.22 |
| O=C(NOC1CCN(S(=O)(=O)c2cccc(C(F)(F)F)c2)CC1)C(c1ccccc1)c1ccccc1 [Example 9, 2,2-Diphenyl-N-(1-(3-(trifluoromethyl)phenylsulfonyl)piperidin-4-yloxy)acetamide] | 0.218 |
| O=C(CCc1ccc(F)cc1)NOC1CCN(S(=O)(=O)c2cccc(C(F)(F)F)c2)CC1 [Example 5, 3-(4-Fluorophenyl)-N-(1-(3-(trifluoromethyl)phenylsulfonyl)piperidin-4-yloxy)propanamide] | 0.102 |
| O=C(NO[C@H]1CCN(S(=O)(=O)c2cccc(C(F)(F)F)c2)C1)Nc1cc(C(F)(F)F)cc(C(F)(F)F)c1 [Example 86, (S)-1-(3,5-Bis(trifluoromethyl)phenyl)-3-(1-(3-(trifluoromethyl)phenylsulfonyl)pyrrolidin-3-yloxy)urea] | 0.705 |
| O=C(NCCC(F)(F)F)NOC1CCN(S(=O)(=O)c2ccc(OC(F)(F)F)cc2)CC1 [Example 67, 1-(1-(4-(Trifluoromethoxy)phenylsulfonyl)piperidin-4-yloxy)-3-(3,3,3-trifluoropropyl)urea] | 1.49 |
| O=C(NOC1CCN(C(c2ccc(F)cc2)c2ccc(F)cc2)CC1)Nc1ccc(F)cc1 [Example 106, 1-(1-(Bis(4-fluorophenyl)methyl)piperidin-4-yloxy)-3-(4-fluorophenyl)urea] | 2.58 |

Source: patent publication US8518934B2, “Oxycarbamoyl compounds and the use thereof” (Shonogi & Co., Ltd., priority 2008, dated 2013)
